The values that follow come from article PMC13252604, “First Generation Proteolysis Targeting Chimeras (PROTACs) for the Treatment of Progeria” (Advanced Science, 2026).

Data set [1] is described as follows: Parallel artificial membrane permeability assay (PAMPA). The conditions noted are these: read-out: P, permeability. It counts as in vitro ADME. Here is the method:
Pharmacokinetic properties, including solubility and membrane permeability, are critical in drug discovery but can pose challenges in PROTAC development […] The calculated logarithm of the partition coefficient between n‐octanol and water (clogP), determined using ACDLabs Percepta Software, indicated an acceptable lipophilicity for PROTAC 2 (clogP = 3.94), aligning with Lipinski's “rule of 5” (clogP<5). […] Compound permeability was assessed using the parallel artificial membrane permeability assay (PAMPA), which measures the ability of compounds to diffuse through a lipid‐infused artificial membrane. […] The cellular uptake of compound 2 was further confirmed by fluorescence microscopy, leveraging the intrinsic fluorescence of pomalidomide‐bearing derivatives (Figure S4).
In general terms: In PAMPA a lipid-coated filter parts donor from acceptor wells.

Data set [2] addresses T1, ternary complex between progerin, compound 2 and CRBN (Mus musculus, UniProt P48678+Q8C7D2, DEL608-657).
T1 construct: endogenous in cells; host or cells: Lmna G609G/G609G mouse fibroblasts
Kind of data set: Co-immunoprecipitation of ternary complex (anti-CRBN IP, anti-progerin blot). It counts as binding. The conditions noted are these: 5 µM, 6 h, Lmna^G609G/G609G fibroblasts. The source says:
(A) Input IP .LM123L T-!=> V,!=>
MW Veh Cpd 2 Cpd 2 Veh !!!!!"#$$#B -45665 T4--8 -4;?,;
Progerin !!!!!E#)*+,- ,V4:-Ise::::: :etpoooomX,?4?V:enst9mmqo,848; !?#$B?CDEFCBG+I-+G.BLG+ […]
!!!!!*+,- 84;66L<-,VI9e::::::esnnsmqmXV4-;VL<-,?:estm9XpoX?4T-?L<-,8 FFFFF0BNNB$ :em9Xn […]
IgG heavy chain Iqep:m:p ne:qmppo:m :esmpqtmpn FFFFFSB#T89:I9em:m […]
50- Iqe9mt:: :eoX9ppnnm :eoqpq9s9p X9YF8=F>.-B2?E+FE??+E?@BBCA
FFFFF0BNNB$ rrrFNBF:eqoqs
Cpd 2 Veh FFFFFSB#T89:rrr […]
Vehicle .LM123L T-!=>(%C" V,!=> […]
50- !!!!!C#' -4TT8VLamin C -4T:T; (%$$-4-:?5T '()*+
!!!!!E#)*+,- ,V4:-β-Actin ,?4?V ,848; D(%
37- !!!!!*+,- 84;66L<-,V V4-;VL<-,? ?4T-?L<-,8 ,-)*+ […]
Abundance Ratio (log2): Ve h / Cpd 2
Supporting Figure S2. Ternary complex formation, progerin engagement and global selectivity of compound 2. (A) Progeroid […]/G609G fibroblasts treated with vehicle (0.1% DMSO) or compound 2 (5 µM) were subjected to immunoprecipitation with an anti-CRBN antibody and then immunoblotted with an anti-progerin antibody. Bar graph represents mean±sem of 2 independent experiments. (B) Representative progerin immunoblotting of the soluble fraction of LmnaG609G/G609G cell homogenates treated with […]
Cells were harvested by trypsin, centrifuged and washed with PBS. […] The mixture was then allowed to incubate for 30min at 37 °C in the dark and samples were finally analysed by FACScalibur (Becton Dickinson) flow cytometer […]

T1 sequence (P48678 with tags, fused parts or gaps DEL608-657 limits assumed): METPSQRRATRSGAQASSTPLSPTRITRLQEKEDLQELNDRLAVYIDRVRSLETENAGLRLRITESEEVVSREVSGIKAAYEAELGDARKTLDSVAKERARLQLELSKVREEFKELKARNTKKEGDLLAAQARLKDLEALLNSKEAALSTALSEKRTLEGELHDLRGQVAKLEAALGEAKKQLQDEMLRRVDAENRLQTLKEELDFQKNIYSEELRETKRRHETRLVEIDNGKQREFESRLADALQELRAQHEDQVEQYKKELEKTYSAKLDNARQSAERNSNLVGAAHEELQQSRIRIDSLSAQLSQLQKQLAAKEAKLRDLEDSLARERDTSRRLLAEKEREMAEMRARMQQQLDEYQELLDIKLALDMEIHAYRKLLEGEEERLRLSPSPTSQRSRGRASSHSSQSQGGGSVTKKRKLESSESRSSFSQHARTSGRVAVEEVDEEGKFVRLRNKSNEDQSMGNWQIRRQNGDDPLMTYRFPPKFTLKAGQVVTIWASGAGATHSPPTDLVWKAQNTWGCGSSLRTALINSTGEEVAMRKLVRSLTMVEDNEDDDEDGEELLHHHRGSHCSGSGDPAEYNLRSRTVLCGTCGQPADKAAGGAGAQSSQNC
T1 sequence (Q8C7D2 whole entry, stated change not applied): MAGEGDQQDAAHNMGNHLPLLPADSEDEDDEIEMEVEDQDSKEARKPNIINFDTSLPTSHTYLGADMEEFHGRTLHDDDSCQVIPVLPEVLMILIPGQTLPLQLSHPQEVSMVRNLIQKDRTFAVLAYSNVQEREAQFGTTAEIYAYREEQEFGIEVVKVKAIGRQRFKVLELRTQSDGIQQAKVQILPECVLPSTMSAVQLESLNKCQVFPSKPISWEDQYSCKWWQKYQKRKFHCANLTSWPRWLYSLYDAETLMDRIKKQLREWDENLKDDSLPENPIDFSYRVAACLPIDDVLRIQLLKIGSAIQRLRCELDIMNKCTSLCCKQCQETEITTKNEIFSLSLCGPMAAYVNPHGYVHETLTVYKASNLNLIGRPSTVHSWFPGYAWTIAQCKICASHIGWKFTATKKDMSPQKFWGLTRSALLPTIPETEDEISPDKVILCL
T1 sequence (Q3U1J4 whole entry partner): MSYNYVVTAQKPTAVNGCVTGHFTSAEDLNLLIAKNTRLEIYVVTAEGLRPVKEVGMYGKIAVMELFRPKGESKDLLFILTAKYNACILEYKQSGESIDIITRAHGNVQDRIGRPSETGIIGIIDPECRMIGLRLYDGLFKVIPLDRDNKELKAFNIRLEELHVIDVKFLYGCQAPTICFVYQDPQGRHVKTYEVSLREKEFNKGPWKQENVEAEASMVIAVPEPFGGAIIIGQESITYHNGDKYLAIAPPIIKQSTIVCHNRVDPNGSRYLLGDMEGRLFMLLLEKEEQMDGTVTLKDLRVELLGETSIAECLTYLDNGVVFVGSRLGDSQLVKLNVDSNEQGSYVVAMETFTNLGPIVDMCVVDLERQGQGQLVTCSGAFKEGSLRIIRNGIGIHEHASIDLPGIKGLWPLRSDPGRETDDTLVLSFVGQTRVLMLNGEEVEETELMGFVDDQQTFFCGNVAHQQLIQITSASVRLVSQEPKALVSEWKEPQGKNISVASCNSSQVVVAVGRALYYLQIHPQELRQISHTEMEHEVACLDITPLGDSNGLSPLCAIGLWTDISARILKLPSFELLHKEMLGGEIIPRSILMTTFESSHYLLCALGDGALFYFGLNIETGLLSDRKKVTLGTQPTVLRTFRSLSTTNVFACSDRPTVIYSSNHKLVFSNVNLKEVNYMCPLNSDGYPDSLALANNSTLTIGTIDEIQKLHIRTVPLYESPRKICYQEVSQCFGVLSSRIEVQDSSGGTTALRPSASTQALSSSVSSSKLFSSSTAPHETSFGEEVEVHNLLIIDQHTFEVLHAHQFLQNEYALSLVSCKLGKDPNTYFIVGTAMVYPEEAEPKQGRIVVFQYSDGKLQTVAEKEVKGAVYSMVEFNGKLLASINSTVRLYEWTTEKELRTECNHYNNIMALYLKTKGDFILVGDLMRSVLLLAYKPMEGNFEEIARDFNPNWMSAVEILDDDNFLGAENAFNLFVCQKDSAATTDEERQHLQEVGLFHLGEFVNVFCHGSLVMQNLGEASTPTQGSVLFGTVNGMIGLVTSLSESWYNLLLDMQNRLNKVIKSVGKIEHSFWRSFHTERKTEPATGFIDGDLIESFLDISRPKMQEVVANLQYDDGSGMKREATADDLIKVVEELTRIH

As to `CC1(C)Oc2cc3oc(=O)ccc3cc2C[C@@H]1OC(=O)CCCCCNc1cccc2c1C(=O)N(C1CCC(=O)NC1=O)C2=O` (some centres unmarked) [compound 2], the Papp in data set [1] stood at 6.7 ×10⁻⁶ cm/s. Further, the “formation of ternary complex with progerin and CRBN by immunoprecipitation” value in data set [2] is “confirmed the formation of the ternary complex”.
